The results in this text go back to PubChem BioAssay AID624254 (Broad Institute, 2012).

Molecules are shown by their SMILES. The source made the active and inactive calls. The rule behind the calls is not given here.

This test is described as follows: Quorum luxo inducers, light production, v cholerae bh1651 luxod47e, confirmatory dose response (AID 624254). To be noted: V. cholerae BH1651 luxOD47E, luciferase light induction, 6 h; at 50 µM (top of the series).
In the case of `Nc1nnc(-c2ccc(Cl)cc2Cl)s1`, the “activation (light increase)” value is “inactive”.

Regarding `Cc1nc(=O)c(-c2ccccc2)c(C)n1CCCCCC(=O)O`, the “activation (light increase)” value was “inactive”.

With `CC(=O)N1CCN(C(=O)c2cc(-c3ccc(Cl)s3)nc3ccccc23)CC1`, the “activation (light increase)” value was “inactive”.

Turning to `Cc1cccc(NS(=O)(=O)c2ccc(Oc3ccccc3)cc2)n1`, the “activation (light increase)” value was “inactive”.

For the molecule `Cc1cccc(OCC(=O)N(C)CCc2ccccn2)c1`, the “activation (light increase)” value is “inactive”.

For the molecule `Cc1ccc2cc(C(c3nnnn3C3CCCC3)N3CCN(c4ccc(F)cc4)CC3)c(=O)[nH]c2c1` (stereo unspecified), the “activation (light increase)” value is “inactive”.

For `CCCn1nnnc1NCc1ccc(N2CCCC2)cc1`, the “activation (light increase)” value is “inactive”.

Consider `O=C(Nc1cccc(-c2ccc(N3CCOCC3)nn2)c1)c1ccc([N+](=O)[O-])cc1`, for which the “activation (light increase)” value is “inactive”.

Consider `CC(=O)c1cc2c(cc1NS(=O)(=O)c1ccccc1)OCO2`, for which the “activation (light increase)” value is “inactive”.

As to `Cc1ccccc1NC(=O)Cc1nc(COC(=O)c2ccccn2)cs1`, the “activation (light increase)” value is “inactive”.

With `COc1ccccc1NS(=O)(=O)c1cn(C)cn1`, the “activation (light increase)” value is “inactive”.

Regarding `CCOC(=O)c1nnn(-c2nonc2N)c1CN1CCc2ccccc2C1`, the “activation (light increase)” value was “inactive”.

As to `Nc1nnc(SCC(=O)Nc2ccc3c(c2)OCCO3)s1`, the “activation (light increase)” value is “inactive”.

On to `COc1ccc(C(=O)O)cc1S(=O)(=O)Nc1cccc(C(F)(F)F)c1`, for which the “activation (light increase)” value was “inactive”.

As for `CCOC(=O)C1CCCc2c1[nH]c1c(C(=O)O)cccc21` (stereo unspecified), the “activation (light increase)” value is “inactive”.

On to `COc1ccc(-c2cc(CCCC(=O)NCCc3cc(OC)ccc3OC)no2)cc1`, for which the “activation (light increase)” value is “inactive”.

In the case of `COc1ccc(C(=O)COC(=O)CNC(=O)c2ccc(Cl)cc2Cl)c(OC)c1`, the “activation (light increase)” value is “inactive”.

`COc1cccc(CNC(=O)C2CSC3(C)CCC(=O)N23)c1` (stereo unspecified): the “activation (light increase)” value was “inactive”.

On to `CCCCNC(=O)c1ccccc1NC(=O)CCSc1ccccc1`, for which the “activation (light increase)” value was “inactive”.

As for `CCCCCn1nc(C(=O)N(CC(C)C)c2c(N)n(CCCC)c(=O)[nH]c2=O)c2ccccc2c1=O`, the “activation (light increase)” value was “inactive”.

Regarding `CCCCN1C(=O)C(O)(CC(=O)c2ccccn2)c2ccccc21` (stereo unspecified), the “activation (light increase)” value is “inactive”.

For the molecule `Cn1cnc(S(=O)(=O)Nc2ccc(-c3ccccc3)cc2)c1`, the “activation (light increase)” value is “inactive”.

For `CC(C)[C@H](NC(=O)c1ccccc1F)C(=O)OCC(=O)NC1CC1`, the “activation (light increase)” value is “inactive”.

With `Cc1noc(C)c1NC(=O)Nc1cccc2c1O[C@H](CN(C)S(=O)(=O)c1ccccc1)[C@@H](C)CN([C@H](C)CO)C2=O`, the “activation (light increase)” value was “inactive”.

Consider `COc1cccc(Nc2nc(NCCO)c3ccccc3n2)c1`, for which the “activation (light increase)” value is “inactive”.

On to `CN(C)CC(C)(C)CNC(=O)c1cc(=O)c2ccccc2o1`, for which the “activation (light increase)” value was “inactive”.

For `CCCNC(=O)COC(=O)/C=C/c1ccco1`, the “activation (light increase)” value is “inactive”.

For `O=S(=O)(Nc1ccccn1)c1ccc(Oc2ccccc2)cc1`, the “activation (light increase)” value was “inactive”.

As for `CC(C)(C)OC(=O)NCCCC(CCCNC(=O)OC(C)(C)C)C(=O)O`, the “activation (light increase)” value was “inactive”.

In the case of `Cc1ccc(OCCNC(=O)c2cccc(C)c2)cc1`, the “activation (light increase)” value is “inactive”.

On to `O=C(NCc1ccco1)c1cc2n(n1)C(C(F)(F)F)CC(c1ccc(Cl)c(Cl)c1)N2` (stereo unspecified), for which the “activation (light increase)” value is “inactive”.

For the molecule `Cc1cc(C(=O)CSc2nnc(-c3ccco3)o2)c(C)n1CC1COc2ccccc2O1` (stereo unspecified), the “activation (light increase)” value was “inactive”.

As to `COc1ccccc1N1CCN(CCCOc2ccc(F)cc2)CC1`, the “activation (light increase)” value is “inactive”.

With `C[C@@H]1CN([C@@H](C)CO)C(=O)c2cccc(NC(=O)Nc3ccc4c(c3)OCO4)c2O[C@@H]1CN(C)S(=O)(=O)c1ccccc1`, the “activation (light increase)” value was “inactive”.

For the molecule `CCOc1ccc2nc(SCC(=O)NC(=O)NCc3ccco3)[nH]c2c1`, the “activation (light increase)” value is “inactive”.

On to `Cc1cccc(-c2noc(CN(C(=O)C34CC5CC(CC(C5)C3)C4)C(C)C)n2)c1`, for which the “activation (light increase)” value is “inactive”.

On to `COCCCn1c(=S)[nH]c2ccc(N3CCOCC3)cc2c1=O`, for which the “activation (light increase)” value was “inactive”.

Turning to `CCOC(=O)CC(=O)Nc1nnc(C(C)C)s1`, the “activation (light increase)” value is “inactive”.

For `COc1ccccc1NC(=O)Cc1ccc(-c2ccccc2)cc1`, the “activation (light increase)” value is “inactive”.

For the molecule `COc1cc(SC)ccc1C(=O)OCC(=O)NC1CCCC1`, the “activation (light increase)” value is “inactive”.

For the molecule `O=C(Nc1nnc(-c2ccc(Br)cc2)o1)c1cccc(N2C(=O)CCC2=O)c1`, the “activation (light increase)” value was “inactive”.

Take `CC(=O)Nc1ccc2nc(-c3cccnc3)[nH]c2c1`: the “activation (light increase)” value is “inactive”.

On to `Cc1cccc(-c2noc(-c3ccccc3C(=O)NCC3CCCO3)n2)c1` (stereo unspecified), for which the “activation (light increase)” value is “inactive”.

Consider `O=[N+]([O-])c1ccc(NCCN2CCOCC2)c([N+](=O)[O-])c1`, for which the “activation (light increase)” value was “inactive”.

Consider `CCCCOCC(O)CN1CCN(C(C)=O)CC1` (stereo unspecified), for which the “activation (light increase)” value was “inactive”.

In the case of `CCOCCCNC(=O)C(NC(=O)c1cnccn1)c1ccc(C)cc1` (stereo unspecified), the “activation (light increase)” value is “inactive”.

Take `Cc1cc(C)cc(OC(=O)c2cccnc2)c1`: the “activation (light increase)” value is “inactive”.

Consider `CCn1c(SCC(=O)Nc2ccc3c(c2)OCCO3)nnc1-c1ccccn1`, for which the “activation (light increase)” value was “inactive”.

For the molecule `O=C(NCCC(=O)N1CCN(c2ccc(F)cc2)CC1)c1ccco1`, the “activation (light increase)” value was “inactive”.

As to `Cc1nnc2c3ccccc3c(-c3ccc(O)cc3)nn12`, the “activation (light increase)” value is “inactive”.

As to `Cn1c(SCc2cnc(-c3ccccc3)s2)nnc1C1COc2ccccc2O1` (stereo unspecified), the “activation (light increase)” value was “inactive”.

On to `NS(=O)(=O)c1cc(C(=O)OCC(=O)NC2CCCCCCC2)ccc1Cl`, for which the “activation (light increase)” value is “inactive”.

Consider `O=C(Nc1ccc2oc(-c3ccc4ccccc4c3)nc2c1)c1cccs1`, for which the “activation (light increase)” value is “inactive”.

As to `O=[N+]([O-])c1ccc(S(=O)(=O)NCC(c2cccnc2)N2CCc3ccccc32)cc1` (stereo unspecified), the “activation (light increase)” value is “inactive”.

`Cc1cc(C(=O)OCC(=O)Nc2ccccc2F)c(C)o1`: the “activation (light increase)” value was “inactive”.

On to `Nc1nc(SCc2nc3sc4c(c3c(=O)[nH]2)CCCC4)n[nH]1`, for which the “activation (light increase)” value is “inactive”.

Regarding `COc1ccc(S(=O)(=O)N2CCSC2c2ccc(N)cc2)cc1` (stereo unspecified), the “activation (light increase)” value is “inactive”.

Regarding `O=C(COC(=O)c1ccc(O)cc1)c1ccc2c(c1)OCCO2`, the “activation (light increase)” value was “inactive”.

For `CCOc1ccc(S(=O)(=O)N(CCO)CCO)cc1-c1nc2c(C(C)(C)C)nn(C)c2c(=O)[nH]1`, the “activation (light increase)” value was “inactive”.

For `CCOC(=O)c1c(C)[nH]c(C(=O)COC(=O)C2(C)CC2(Cl)Cl)c1C` (stereo unspecified), the “activation (light increase)” value was “inactive”.

On to `O=S(=O)(Cc1ccc(Cl)cc1)N1CCN(Cc2ccccc2)CC1`, for which the “activation (light increase)” value was “inactive”.

In the case of `CCCCOC(=O)n1c(=O)oc2ccccc21`, the “activation (light increase)” value was “inactive”.

For `C[C@@H]1CN([C@@H](C)CO)C(=O)c2cccc(NC(=O)C3CC3)c2O[C@@H]1CN(C)S(=O)(=O)c1cccs1`, the “activation (light increase)” value was “inactive”.

As for `CCOC(=O)c1c(NC(=O)COC(=O)Cc2c[nH]c3ccccc23)sc(C(=O)N(C)C)c1C`, the “activation (light increase)” value is “inactive”.

Regarding `CC(=O)c1cccc(NC(=O)COC(=O)Cc2ccc(Cl)cc2)c1`, the “activation (light increase)” value is “inactive”.

As for `CCc1ccc(C(=O)OCC(=O)NC2CCCC2)cc1`, the “activation (light increase)” value is “inactive”.

With `Cc1ccc(C)c(N2CCN(C(c3ccc(N(C)C)cc3)c3nnnn3C(C)(C)C)CC2)c1` (stereo unspecified), the “activation (light increase)” value was “inactive”.

Regarding `Cc1ccc(CN(Cc2cc3cc(C)ccc3[nH]c2=O)C(=O)N2CCOCC2)cc1`, the “activation (light increase)” value was “inactive”.

With `Cc1cc(N2CCC(C)CC2)nc2ccc(N3C(=O)CCC3=O)cc12`, the “activation (light increase)” value was “inactive”.

For the molecule `Cc1ccc(C(=O)OCC(=O)NC2CCCC2)cc1C`, the “activation (light increase)” value was “inactive”.

As for `CCOC(=O)CNc1c(-c2ccc(Cl)cc2)nc2cnccn12`, the “activation (light increase)” value was “inactive”.

Turning to `CSc1ccccc1NC(=O)COc1ccc(S(=O)(=O)N2CCCC2)cc1`, the “activation (light increase)” value was “inactive”.

For the molecule `Cc1ccc(C)c(OCCC(=O)OCC(=O)NC2CC2)c1`, the “activation (light increase)” value is “inactive”.

As for `COc1ccc(Cl)cc1NC(=O)CN(C)C(=O)CNC(=O)C12CC3CC(CC(C3)C1)C2`, the “activation (light increase)” value was “inactive”.

Regarding `CCOC(=O)C1CCN(C(=O)Nc2ccc3c(c2)nc(C)n3C)CC1`, the “activation (light increase)” value is “inactive”.

Take `CN(C)S(=O)(=O)c1cccc(NC(=O)COC(=O)c2ccc(Br)o2)c1`: the “activation (light increase)” value was “inactive”.

For `CCN1CCN(C(=O)c2ccc(COc3ccc(Cl)cc3)o2)CC1`, the “activation (light increase)” value is “inactive”.

Take `O=c1[nH]c2ccccc2n1Cc1ccc(Cl)cc1`: the “activation (light increase)” value is “inactive”.

Consider `COc1ccc(Cl)cc1NC(=O)COC(=O)c1cc(C)oc1C`, for which the “activation (light increase)” value was “inactive”.

Regarding `c1cn2cc(CN3CCOCC3)nc2s1`, the “activation (light increase)” value was “inactive”.

Consider `Cc1ccc(Oc2ccc(Cl)cc2NC(=O)c2cnccn2)cc1`, for which the “activation (light increase)” value is “inactive”.

On to `COc1ccc(S(=O)(=O)N(C)C[C@H]2Oc3c(NC(=O)Nc4ccc5c(c4)OCO5)cccc3C(=O)N([C@H](C)CO)C[C@@H]2C)cc1`, for which the “activation (light increase)” value was “inactive”.

Regarding `CCOC(=O)C1CCCN(Cc2cccc(Cl)c2)C1` (stereo unspecified), the “activation (light increase)” value is “inactive”.

`O=C(CN1C(=O)COc2ccccc21)c1ccc(Cl)cc1`: the “activation (light increase)” value is “inactive”.

As to `O=S(=O)(Nc1ccc(-c2csc(-c3ccccc3)n2)cc1)c1ccc(F)cc1`, the “activation (light increase)” value is “inactive”.

For the molecule `COc1ccc(NC(=O)COc2cccc3c2CCNC3=O)cc1`, the “activation (light increase)” value is “inactive”.
